Laboratory results taken from US9512107B2, “Therapeutically active compositions and their methods of use” (Agios Pharmaceuticals, Inc., priority 2012, dated 2016).
Positions count from the first letter of the chain named.

Legend:
[1] = system: U87MG pLVX-IDH2 R140Q-neo cells; assay: U87MG pLVX-IDH2 R140Q-neo cell based assay, 2-HG in media by LC-MS at 48 hours; conditions: Homo sapiens, U-87 MG
Outline: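 2-HG secreted into the medium was measured by LC-MS after 48 h of compound treatment (0.2% DMSO final) of U87MG pLVX-IDH2 R140Q-neo cells in DMEM/10% FBS. The same wells were assayed at 72 h by CellTiter-Glo luminescence for effects on growth.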

[2] = molecular target: T1, IDH2 R172K (Homo sapiens, UniProt P48735, R172K); assay: IDH2 R172K enzymatic assay (NADPH cofactor depletion, diaphorase/resazurin readout); type: biochemical; conditions: read-out: Enz R172K
T1 sequence (P48735 40-452 R172K): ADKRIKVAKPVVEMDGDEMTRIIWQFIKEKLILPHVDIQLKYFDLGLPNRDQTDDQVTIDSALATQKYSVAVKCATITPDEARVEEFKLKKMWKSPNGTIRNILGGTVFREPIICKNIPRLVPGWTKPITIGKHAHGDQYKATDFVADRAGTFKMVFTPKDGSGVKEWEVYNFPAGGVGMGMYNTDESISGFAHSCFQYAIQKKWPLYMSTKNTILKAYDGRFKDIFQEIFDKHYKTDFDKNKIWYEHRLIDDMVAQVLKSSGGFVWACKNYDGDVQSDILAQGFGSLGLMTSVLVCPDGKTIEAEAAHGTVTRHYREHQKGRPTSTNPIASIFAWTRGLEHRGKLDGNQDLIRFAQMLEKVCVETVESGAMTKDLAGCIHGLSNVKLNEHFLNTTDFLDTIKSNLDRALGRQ
Procedure: Compounds are assayed for IDH2 R172K inhibitory activity through a cofactor depletion assay. […] The reaction is terminated by the addition of a second enzyme, diaphorase, and a corresponding substrate, resazurin. Diaphorase reduces resazurin to the highly fluorescent resorufin with the concomitant oxidation of NADPH to NADP, both halting the IDH2 reaction by depleting the available cofactor pool and facilitating quantitation of the amount of cofactor remaining after a specific time period through quantitative production of an easily detected fluorophore.
The test compound is then incubated for one hour at room temperature with the enzyme; before starting the IDH2 reaction with the addition of 10 μl of substrate mix containing 50 μM NADPH and 6.3 mM α-KG in the buffer described above. After a further one hour of incubation at room temperature, the reaction is halted and the remaining NADPH measured through conversion of resazurin to resorufin by the addition of 25 μl Stop Mix (36 μg/ml diaphorase enzyme and 60 μM resazurin; in buffer).

[3] = molecular target: T2, IDH2 R140Q (Homo sapiens, UniProt P48735, R140Q); assay: IDH2 R140Q enzymatic assay (cofactor depletion, similar format); type: biochemical; conditions: read-out: Enz R140Q
T2 sequence (P48735 40-452 R140Q): T1 sequence (P48735 40-452 R172K) with R101Q, K133R

IC50 [1] [nM] | IC50 [2] [nM] | IC50 [3] [nM] | SMILES
< 100 | 100 to 1000 | < 100 | CC(C)Nc1nc(Nc2ccnc(C#N)c2)nc(-c2ccccc2)n1 [Compound 197, 4-(4-(isopropylamino)-6-phenyl-1,3,5-triazin-2-ylamino)picolinonitrile]
< 100 | 100 to 1000 | < 100 | CC(C)Nc1nc(Nc2cccc(CC#N)c2)nc(-c2ccccc2)n1 [Compound 198, 2-(3-(4-(isopropylamino)-6-phenyl-1,3,5-triazin-2-ylamino)phenyl)acetonitrile]
< 100 | < 100 | < 100 | CC(C)Nc1nc(Nc2ccnc(Cl)c2)nc(-c2ccccc2)n1 [Compound 199, N^2-(2-chloropyridin-4-yl)-N^4-isopropyl-6-phenyl-1,3,5-triazine-2,4-diamine]
< 100 | 100 to 1000 | < 100 | CCOc1cc(Nc2nc(NC(C)C)nc(-c3ccccc3)n2)ccn1 [Compound 200, N^2-(2-ethoxypyridin-4-yl)-N^4-isopropyl-6-phenyl-1,3,5-triazine-2,4-diamine]
100 to 1000 | 1000 to 10000 | < 100 | CC(C)Nc1nc(Nc2cccc(C(C)(C)O)c2)nc(-c2ccccc2)n1 [Compound 201, 2-(3-(4-(isopropylamino)-6-phenyl-1,3,5-triazin-2-ylamino)phenyl)propan-2-ol]
< 100 | < 100 | < 100 | CC(C)Nc1nc(Nc2ccnc(C(F)(F)F)c2)nc(-c2ccccc2)n1 [Compound 202, N^2-isopropyl-6-phenyl-N^4-(2-(trifluoromethyl)pyridin-4-yl)-1,3,5-triazine-2,4-diamine]
100 to 1000 | 1000 to 10000 | < 100 | CCNS(=O)(=O)c1cccc(Nc2nc(NC(C)C)nc(-c3ccccc3)n2)c1 [Compound 204, N-ethyl-3-(4-(isopropylamino)-6-phenyl-1,3,5-triazin-2-ylamino)benzenesulfonamide]
< 100 | 100 to 1000 | < 100 | CCS(=O)(=O)c1cccc(Nc2nc(NC(C)C)nc(-c3ccccc3)n2)c1 [Compound 205, N^2-(3-(ethylsulfonyl)phenyl)-N^4-isopropyl-6-phenyl-1,3,5-triazine-2,4-diamine]
100 to 1000 | 100 to 1000 | < 100 | CC(C)Nc1nc(Nc2cccc(S(=O)(=O)C(C)C)c2)nc(-c2ccccc2)n1 [Compound 206, N^2-isopropyl-N^4-(3-(isopropylsulfonyl)phenyl)-6-phenyl-1,3,5-triazine-2,4-diamine]
< 100 | 100 to 1000 | < 100 | CC(C)Nc1nc(Nc2cncc(C#N)c2)nc(-c2ccccc2)n1 [Compound 210, 5-(4-(isopropylamino)-6-phenyl-1,3,5-triazin-2-ylamino)nicotinonitrile]
< 100 | 100 to 1000 | < 100 | CC(C)CCNc1nc(Nc2ccncc2)nc(-c2ccccc2)n1 [Compound 212, N^2-isopentyl-6-phenyl-N^4-(pyridin-4-yl)-1,3,5-triazine-2,4-diamine]
< 100 | 100 to 1000 | < 100 | CC(C)C(C)Nc1nc(Nc2ccncc2)nc(-c2ccccc2)n1 (stereo not drawn) [Compound 213, N^2-(3-methylbutan-2-yl)-6-phenyl-N^4-(pyridin-4-yl)-1,3,5-triazine-2,4-diamine]
100 to 1000 | 100 to 1000 | < 100 | CC(C)Nc1nc(Nc2ccccc2)nc(-c2ccccn2)n1 [Compound 214, N-Isopropyl-N′-phenyl-6-pyridin-2-yl-[1,3,5]triazine-2,4-diamine]
< 100 | < 100 | < 100 | CC(C)Nc1nc(Nc2ccnc(F)c2)nc(-c2ccccc2)n1 [Compound 223, N^2-(2-fluoropyridin-4-yl)-N^4-isopropyl-6-phenyl-1,3,5-triazine-2,4-diamine]
100 to 1000 | 100 to 1000 | < 100 | CCNc1cc(Nc2nc(NC(C)C)nc(-c3ccccc3)n2)ccn1 [Compound 224, N^2-(2-(ethylamino)pyridin-4-yl)-N^4-isopropyl-6-phenyl-1,3,5-triazine-2,4-diamine]
< 100 | 100 to 1000 | < 100 | CC(C)Nc1nc(Nc2ccncc2)nc(-c2ccccc2F)n1 [Compound 227, 6-(2-fluorophenyl)-N^2-isopropyl-N^4-(pyridin-4-yl)-1,3,5-triazine-2,4-diamine]
100 to 1000 | 100 to 1000 | < 100 | CC(C)Nc1nc(Nc2ccccc2)nc(-c2cc(Cl)ccn2)n1 [Compound 228, 6-(4-chloropyridin-2-yl)-N^2-isopropyl-N^4-phenyl-1,3,5-triazine-2,4-diamine]

More lines, now with the values behind:

SMILES | IC50 [1] [nM] | IC50 [2] [nM] | IC50 [3] [nM]
CC(C)(O)CNc1nc(Nc2ccccc2)nc(-c2ccccc2)n1 [Compound 203, 2-methyl-1-(4-phenyl-6-phenylamino-[1,3,5]triazin-2-yl-amino)-propan-2-ol] | 100 to 1000 | 1000 to 10000 | < 100
CC(C)(C)COC(=O)Nc1nc(Nc2ccccc2)nc(-c2ccccc2)n1 [Compound 208, Neopentyl 4-phenyl-6-(phenylamino)-1,3,5-triazin-2-ylcarbamate] | 100 to 1000 | 100 to 1000 | < 100
CCC(=O)Nc1nc(Nc2ccccc2)nc(-c2ccccc2)n1 [Compound 209, N-(4-phenyl-6-(phenylamino)-1,3,5-triazin-2-yl)propionamide] | 100 to 1000 | 100 to 1000 | < 100
CCCCNc1nc(Nc2ccncc2)nc(-c2ccccc2)n1 [Compound 211, N^2-butyl-6-phenyl-N^4-(pyridin-4-yl)-1,3,5-triazine-2,4-diamine] | 100 to 1000 | 100 to 1000 | < 100
FC(F)(F)CNc1nc(Nc2ccncc2)nc(-c2ccccc2)n1 [Compound 215, 6-phenyl-N^2-(pyridin-4-yl)-N^4-(2,2,2-trifluoroethyl)-1,3,5-triazine-2,4-diamine] | 100 to 1000 | 1000 to 10000 | < 100
c1ccc(-c2nc(NCC3CC3)nc(Nc3ccncc3)n2)cc1 [Compound 216, N^2-(cyclopropylmethyl)-6-phenyl-N^4-(pyridin-4-yl)-1,3,5-triazine-2,4-diamine] | 100 to 1000 | 100 to 1000 | < 100
CC1(Nc2nc(Nc3ccncc3)nc(-c3ccccc3)n2)CC1 [Compound 218, N^2-(1-methylcyclopropyl)-6-phenyl-N^4-(pyridin-4-yl)-1,3,5-triazine-2,4-diamine] | 100 to 1000 | 1000 to 10000 | < 100
CC1CC1Nc1nc(Nc2ccncc2)nc(-c2ccccc2)n1 (stereo not drawn) [Compound 219, N^2-(2-methylcyclopropyl)-6-phenyl-N^4-(pyridin-4-yl)-1,3,5-triazine-2,4-diamine] | < 100 | 100 to 1000 | < 100
CCC(C)CNc1nc(Nc2ccncc2)nc(-c2ccccc2)n1 (stereo not drawn) [Compound 220, N^2-(2-methylbutyl)-6-phenyl-N^4-(pyridin-4-yl)-1,3,5-triazine-2,4-diamine] | < 100 | 100 to 1000 | < 100
CC1(CNc2nc(Nc3ccncc3)nc(-c3ccccc3)n2)CCCO1 (stereo not drawn) [Compound 221, N^2-((2-methyltetrahydrofuran-2-yl)methyl)-6-phenyl-N^4-(pyridin-4-yl)-1,3,5-triazine-2,4-diamine] | 100 to 1000 | 1000 to 10000 | 100 to 1000
COCCNc1nc(Nc2ccccc2)nc(-c2ccccc2)n1 [Compound 225, N^2-(2-methoxyethyl)-N^4,6-diphenyl-1,3,5-triazine-2,4-diamine] | 100 to 1000 | 1000 to 10000 | < 100
CC(C)Nc1nc(Nc2ccncc2)nc(-c2ccccc2Cl)n1 [Compound 226, 6-(2-chlorophenyl)-N^2-isopropyl-N^4-(pyridin-4-yl)-1,3,5-triazine-2,4-diamine] | 100 to 1000 | 100 to 1000 | < 100
